# Experimental data: publication PMC6749370, “Antibacterial Evaluation, In Silico Characters and Molecular Docking of Schiff Bases Derived from 5-aminopyrazoles” (Molecules, 2019)
# Marks after values point to notes of the source that are not given here.
# Experiments:
# [1] = system: Escherichia coli (Ec); test: Minimal inhibitory concentration against multi-drug resistant bacteria; format: cell-based; settings: NA: No Activity
# Experimental: (§1) In vitro antibacterial activities against multi-drug resistant bacteria (MDRB) of Schiff bases 14–25 were performed at botany and microbiology department, Faculty of Science, Al-Azhar University, Cairo, Egypt. The antibacterial potential of 14–25 were investigated towards the multi-drug resistant bacteria (MDRB). The results were summarized as the diameter of the inhibition zones in mm and minimal inhibitory concentration (MIC, µg/mL) values in Table 2.
# (§2) The synthesized compounds, Schiff bases 14–25, were in vitro evaluation of their antibacterial properties against multi-drug resistant bacteria (MDRB). Examples of Gram-positive bacteria are Staphylococcus aureus (MRSA, Sa), Staphylococcus epidermis (Sp), and Enterococcus faecalis (Ef). Examples of Gram-negative bacteria are Acinetobacter baumannii (Ab), Enterobacter cloaca (Ecl), and Escherichia coli (Ec). All the tested strain was identified by Vitek®2 system. The multi-drug resistant to antibiotics such as Ampicillin, Cephalexin, Colisin, Ipemenem, and Meropenem was verified.
# [2] = system: Enterococcus faecalis (Ef); test: as above; format: cell-based; settings: NA: No Activity
# Experimental: as §1, §2
# [3] = system: Staphylococcus aureus (MRSA, Sa); test: as above; format: cell-based; settings: NA: No Activity
# Experimental: as §1, §2
# [4] = system: Staphylococcus epidermis (Se); test: as above; format: cell-based; settings: NA: No Activity
# Experimental: as §1, with “(MDRB).” for “(MDRB). The results were summarized as the diameter of the inhibition zones in mm and minimal inhibitory concentration (MIC, µg/mL) values in Table 2.”
# as §2, with “system.” for “system. The multi-drug resistant to antibiotics such as Ampicillin, Cephalexin, Colisin, Ipemenem, and Meropenem was verified.”
# [5] = system: Enterobacter cloaca (Ecl); test: as above; format: cell-based; settings: NA: No Activity
# Experimental: as §1, with “(MDRB).” for “(MDRB). The results were summarized as the diameter of the inhibition zones in mm and minimal inhibitory concentration (MIC, µg/mL) values in Table 2.”
# as §2, with “system.” for “system. The multi-drug resistant to antibiotics such as Ampicillin, Cephalexin, Colisin, Ipemenem, and Meropenem was verified.”
# [6] = system: Acinetobacter baumannii (Ab); test: as above; format: cell-based; settings: NA: No Activity
# Experimental: as §1, with “(MDRB).” for “(MDRB). The results were summarized as the diameter of the inhibition zones in mm and minimal inhibitory concentration (MIC, µg/mL) values in Table 2.”
# as §2, with “system.” for “system. The multi-drug resistant to antibiotics such as Ampicillin, Cephalexin, Colisin, Ipemenem, and Meropenem was verified.”
# [7] = biological target: Staphylococcus aureus DNA gyrase (Staphylococcus aureus, UniProt P0A0K8+P20831); test: In vitro enzyme inhibition assay; format: biochemical; settings: mean of three values, read-out: IC50 (Mean ± SEM) DNA Gyrase
# [8] = biological target: Topoisomerase IV (Staphylococcus aureus, UniProt P0C1S7+P0C1U9); test: In vitro enzyme inhibition assay; format: biochemical
# Chain of Topoisomerase IV (P0C1S7 whole entry): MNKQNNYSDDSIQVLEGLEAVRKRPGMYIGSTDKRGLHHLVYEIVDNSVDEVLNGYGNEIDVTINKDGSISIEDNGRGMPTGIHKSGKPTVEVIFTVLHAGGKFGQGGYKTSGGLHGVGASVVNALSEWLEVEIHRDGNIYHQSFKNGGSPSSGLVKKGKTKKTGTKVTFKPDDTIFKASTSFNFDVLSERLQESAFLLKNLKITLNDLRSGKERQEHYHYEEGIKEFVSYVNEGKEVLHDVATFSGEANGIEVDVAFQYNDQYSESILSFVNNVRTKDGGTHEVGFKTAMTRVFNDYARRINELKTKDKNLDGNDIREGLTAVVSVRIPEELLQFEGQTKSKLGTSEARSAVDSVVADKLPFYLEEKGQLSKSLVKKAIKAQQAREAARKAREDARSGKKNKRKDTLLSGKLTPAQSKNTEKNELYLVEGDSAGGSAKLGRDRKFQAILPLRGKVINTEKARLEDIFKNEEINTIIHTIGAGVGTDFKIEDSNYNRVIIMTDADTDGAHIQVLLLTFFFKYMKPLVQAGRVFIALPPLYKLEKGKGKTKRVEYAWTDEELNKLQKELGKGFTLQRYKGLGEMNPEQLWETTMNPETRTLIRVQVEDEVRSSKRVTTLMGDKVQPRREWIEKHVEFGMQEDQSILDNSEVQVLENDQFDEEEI
# Chain of Topoisomerase IV (P0C1U9 whole entry): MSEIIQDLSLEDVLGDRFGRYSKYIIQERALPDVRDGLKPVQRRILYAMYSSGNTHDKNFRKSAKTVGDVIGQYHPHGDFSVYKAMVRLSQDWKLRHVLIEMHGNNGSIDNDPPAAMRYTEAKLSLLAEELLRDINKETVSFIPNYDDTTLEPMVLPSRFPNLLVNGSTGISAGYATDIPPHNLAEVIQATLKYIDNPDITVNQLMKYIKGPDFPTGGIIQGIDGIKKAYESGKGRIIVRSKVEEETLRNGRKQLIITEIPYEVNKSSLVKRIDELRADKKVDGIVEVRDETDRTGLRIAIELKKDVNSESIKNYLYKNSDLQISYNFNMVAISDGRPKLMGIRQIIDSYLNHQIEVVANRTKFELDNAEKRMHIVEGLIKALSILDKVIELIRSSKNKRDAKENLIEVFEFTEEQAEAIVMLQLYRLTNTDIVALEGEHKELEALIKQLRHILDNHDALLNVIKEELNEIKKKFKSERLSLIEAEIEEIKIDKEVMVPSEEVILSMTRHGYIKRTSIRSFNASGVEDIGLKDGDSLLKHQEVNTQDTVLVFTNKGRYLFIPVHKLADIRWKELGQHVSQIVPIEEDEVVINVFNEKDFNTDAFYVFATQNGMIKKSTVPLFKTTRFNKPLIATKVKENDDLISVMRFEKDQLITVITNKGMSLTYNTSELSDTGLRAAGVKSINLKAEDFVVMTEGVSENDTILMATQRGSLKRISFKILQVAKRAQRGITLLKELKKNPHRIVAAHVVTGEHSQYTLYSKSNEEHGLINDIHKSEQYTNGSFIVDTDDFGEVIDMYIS
# Chain of Staphylococcus aureus DNA gyrase (P20831 whole entry): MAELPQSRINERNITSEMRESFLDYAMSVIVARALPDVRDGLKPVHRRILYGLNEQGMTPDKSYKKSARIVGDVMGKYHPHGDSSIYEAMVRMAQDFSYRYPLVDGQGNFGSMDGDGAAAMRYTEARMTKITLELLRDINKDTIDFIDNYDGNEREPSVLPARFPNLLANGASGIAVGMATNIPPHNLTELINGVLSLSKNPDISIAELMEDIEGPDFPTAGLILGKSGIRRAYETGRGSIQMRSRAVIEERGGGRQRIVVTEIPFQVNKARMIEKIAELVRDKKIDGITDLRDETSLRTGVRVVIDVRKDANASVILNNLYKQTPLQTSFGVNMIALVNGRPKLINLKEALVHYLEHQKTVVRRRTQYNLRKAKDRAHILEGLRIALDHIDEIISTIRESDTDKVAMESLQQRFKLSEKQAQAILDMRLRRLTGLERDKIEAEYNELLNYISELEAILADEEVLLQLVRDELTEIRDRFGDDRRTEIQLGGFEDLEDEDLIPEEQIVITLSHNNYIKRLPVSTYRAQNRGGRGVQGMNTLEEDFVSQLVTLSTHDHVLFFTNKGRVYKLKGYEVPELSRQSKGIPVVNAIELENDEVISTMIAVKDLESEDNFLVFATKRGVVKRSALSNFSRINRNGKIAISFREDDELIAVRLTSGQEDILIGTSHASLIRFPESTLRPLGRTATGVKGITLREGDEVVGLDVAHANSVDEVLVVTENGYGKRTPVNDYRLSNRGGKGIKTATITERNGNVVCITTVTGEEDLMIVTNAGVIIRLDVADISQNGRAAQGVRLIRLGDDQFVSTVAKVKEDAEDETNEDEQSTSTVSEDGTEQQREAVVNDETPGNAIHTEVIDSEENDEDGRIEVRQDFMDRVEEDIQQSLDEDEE
# Chain of Staphylococcus aureus DNA gyrase (P0A0K8 whole entry): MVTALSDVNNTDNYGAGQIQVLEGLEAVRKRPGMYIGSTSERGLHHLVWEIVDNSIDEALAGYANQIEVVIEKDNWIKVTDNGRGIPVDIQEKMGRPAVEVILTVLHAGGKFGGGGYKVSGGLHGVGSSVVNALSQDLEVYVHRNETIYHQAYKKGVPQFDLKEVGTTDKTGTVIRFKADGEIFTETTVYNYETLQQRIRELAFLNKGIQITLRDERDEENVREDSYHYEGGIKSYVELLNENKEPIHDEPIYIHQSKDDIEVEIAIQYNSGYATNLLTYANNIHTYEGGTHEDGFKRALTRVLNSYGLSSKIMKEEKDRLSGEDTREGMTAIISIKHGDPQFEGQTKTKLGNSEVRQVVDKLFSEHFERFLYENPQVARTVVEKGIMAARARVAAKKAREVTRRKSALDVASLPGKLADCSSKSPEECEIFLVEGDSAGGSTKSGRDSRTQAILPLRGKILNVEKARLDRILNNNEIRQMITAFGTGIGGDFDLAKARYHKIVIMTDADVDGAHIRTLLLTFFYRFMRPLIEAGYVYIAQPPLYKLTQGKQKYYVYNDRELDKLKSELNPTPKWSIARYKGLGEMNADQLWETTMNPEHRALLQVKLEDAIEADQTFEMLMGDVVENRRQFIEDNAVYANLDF
Structure (SMILES),MIC [1] [µg/mL],MIC [2] [µg/mL],MIC [3] [µg/mL],MIC [4] [µg/mL],MIC [5] [µg/mL],"Minimal inhibitory concentration (MIC), Sa [3]",MIC [6] [µg/mL],"Minimal inhibitory concentration (MIC), Ab [6]","Minimal inhibitory concentration (MIC), Ec [1]",IC50 [7] [µM],IC50 [8] [µM],"Minimal inhibitory concentration (MIC), Ecl [5]","Minimal inhibitory concentration (MIC), Ef [2]"
"O=C(O)c1cn(C2CC2)c2cc(N3CCNCC3)c(F)cc2c1=O [Ciprofloxacin, reference compound]",7.81,7.81,7.81,–,–,–,–,–,–,–,–,–,–
COc1ccc(Nc2n[nH]c(/N=C/c3ccccc3)c2C(=O)Nc2ccccc2)cc1 [Compound 14],–,15.6,31.2,7.81,125,–,–,–,–,–,–,–,–
COc1ccc(Nc2n[nH]c(/N=C/c3ccc(C)cc3)c2C(=O)Nc2ccccc2)cc1 [Compound 15],125,31.2,62.5,15.6,62.5,62.50 µg/mL,62.5,–,–,–,–,–,–
COc1ccc(Nc2n[nH]c(/N=C/c3ccc(Cl)cc3)c2C(=O)Nc2ccccc2)cc1 [Compound 16],125,62.5,31.2,7.81,62.5,–,15.6,15.62 * µg/mL,–,–,–,–,–
COc1ccc(Nc2n[nH]c(/N=C/c3ccc(F)cc3)c2C(=O)Nc2ccccc2)cc1 [Compound 17],31.2,–,62.5,31.2,125,–,62.5,–,31.25 * µg/mL,–,–,–,–
COc1ccc(Nc2n[nH]c(/N=C/c3ccccc3)c2C(=O)Nc2ccc(C)cc2)cc1 [Compound 18],250,31.2,15.6,7.81,62.5,15.62 * µg/mL,15.6,15.62 * µg/mL,–,1.68 ± 0.1,74.6 ± 1.2,–,–
COc1ccc(Nc2n[nH]c(/N=C/c3ccc(C)cc3)c2C(=O)Nc2ccc(C)cc2)cc1 [Compound 19],62.5,15.6,31.2,15.6,125,–,62.5,–,–,–,–,–,–
COc1ccc(Nc2n[nH]c(/N=C/c3ccc(Cl)cc3)c2C(=O)Nc2ccc(C)cc2)cc1 [Compound 20],–,250,62.5,125,–,–,–,–,–,–,–,–,–
COc1ccc(Nc2n[nH]c(/N=C/c3ccc(F)cc3)c2C(=O)Nc2ccc(C)cc2)cc1 [Compound 21],–,–,125,62.5,–,–,–,–,–,–,–,–,–
COc1ccc(Nc2n[nH]c(/N=C/c3ccccc3)c2C(=O)Nc2ccc(Cl)cc2)cc1 [Compound 22],–,125,250,125,15.6,–,–,–,–,–,–,15.62 * µg/mL,–
COc1ccc(Nc2n[nH]c(/N=C/c3ccc(C)cc3)c2C(=O)Nc2ccc(Cl)cc2)cc1 [Compound 23],–,7.81,31.2,15.6,62.5,–,–,–,–,–,–,–,7.81 * µg/mL
COc1ccc(Nc2n[nH]c(/N=C/c3ccc(Cl)cc3)c2C(=O)Nc2ccc(Cl)cc2)cc1 [Compound 24],125,15.6,125,62.5,62.5,–,–,–,–,–,–,–,–
